Reference: patent publication US20230310428A1, “EGFR INHIBITOR AND PREPARATION METHOD AND USE THEREOF” (HONGYUN BIOTECH CO., LTD., priority 2020, published 2023)
pIC50: −log10 of the molar value. Read-outs that look alike come from different tables or passages of the source.

Assays:
Assay in all cases: Growth inhibitory activity of compounds on BaF3 cell lines stably transfected with kinase (MTS, 48 h)
Type in all cases: cell-based
[1] = biological target: T1, various mutants of kinase EGFR (BaF3 cell lines stably transfected with kinase) (Homo sapiens, UniProt P00533, L858R)
T1 construct: expressed in transfected cells; host or cells: BaF3
T1 sequence (P00533 25-1210 L858R): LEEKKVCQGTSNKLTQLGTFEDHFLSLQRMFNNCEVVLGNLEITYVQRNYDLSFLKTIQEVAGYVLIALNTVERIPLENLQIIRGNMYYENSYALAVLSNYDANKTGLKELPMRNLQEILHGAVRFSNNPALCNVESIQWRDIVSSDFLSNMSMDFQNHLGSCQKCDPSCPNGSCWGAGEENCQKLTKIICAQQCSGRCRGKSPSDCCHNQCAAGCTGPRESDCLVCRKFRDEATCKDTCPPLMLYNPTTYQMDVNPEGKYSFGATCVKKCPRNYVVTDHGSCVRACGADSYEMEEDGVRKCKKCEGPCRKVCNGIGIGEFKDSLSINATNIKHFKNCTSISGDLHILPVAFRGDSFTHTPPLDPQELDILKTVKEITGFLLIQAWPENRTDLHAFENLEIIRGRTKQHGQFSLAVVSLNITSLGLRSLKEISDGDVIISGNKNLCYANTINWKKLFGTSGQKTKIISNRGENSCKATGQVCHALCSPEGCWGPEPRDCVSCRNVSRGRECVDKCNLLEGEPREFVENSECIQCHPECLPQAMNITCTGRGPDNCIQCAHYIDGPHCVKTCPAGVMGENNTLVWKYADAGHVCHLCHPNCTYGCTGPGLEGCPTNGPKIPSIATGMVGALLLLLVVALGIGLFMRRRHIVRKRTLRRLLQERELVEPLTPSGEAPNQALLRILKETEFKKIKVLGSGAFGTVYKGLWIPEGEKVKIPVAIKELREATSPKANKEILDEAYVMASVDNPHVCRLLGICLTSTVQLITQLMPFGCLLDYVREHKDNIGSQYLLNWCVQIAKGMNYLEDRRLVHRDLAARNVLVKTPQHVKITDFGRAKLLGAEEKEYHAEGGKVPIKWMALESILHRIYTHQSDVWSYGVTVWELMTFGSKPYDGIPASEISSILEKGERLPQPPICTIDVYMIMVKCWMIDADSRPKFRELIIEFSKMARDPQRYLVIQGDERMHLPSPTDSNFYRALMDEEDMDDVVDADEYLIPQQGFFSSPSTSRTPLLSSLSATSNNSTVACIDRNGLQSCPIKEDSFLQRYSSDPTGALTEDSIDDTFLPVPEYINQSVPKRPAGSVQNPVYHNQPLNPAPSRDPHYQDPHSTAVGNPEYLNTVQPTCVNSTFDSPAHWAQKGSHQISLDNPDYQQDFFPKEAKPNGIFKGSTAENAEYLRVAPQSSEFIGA
Procedure, shortened: (§1)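 Transfected cells received compound (max 10 µM, 8 concentrations) for 48 h; MTS readout at 490 nm yielded IC50.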

[2] = biological target: T2, various mutants of kinase EGFR (BaF3 cell lines stably transfected with kinase) (Homo sapiens, UniProt P00533, T790M, form not given)
T2 construct: other: BaF3 cells stably transfected with EGFR Δ19Del/T790M; MTS, 48 h; other: BaF3 cell line stably transfected with EGFR Δ19Del/T790M; MTS, 48
T2 sequence (P00533 with tags, fused parts or gaps DEL746-750/T790M, form open): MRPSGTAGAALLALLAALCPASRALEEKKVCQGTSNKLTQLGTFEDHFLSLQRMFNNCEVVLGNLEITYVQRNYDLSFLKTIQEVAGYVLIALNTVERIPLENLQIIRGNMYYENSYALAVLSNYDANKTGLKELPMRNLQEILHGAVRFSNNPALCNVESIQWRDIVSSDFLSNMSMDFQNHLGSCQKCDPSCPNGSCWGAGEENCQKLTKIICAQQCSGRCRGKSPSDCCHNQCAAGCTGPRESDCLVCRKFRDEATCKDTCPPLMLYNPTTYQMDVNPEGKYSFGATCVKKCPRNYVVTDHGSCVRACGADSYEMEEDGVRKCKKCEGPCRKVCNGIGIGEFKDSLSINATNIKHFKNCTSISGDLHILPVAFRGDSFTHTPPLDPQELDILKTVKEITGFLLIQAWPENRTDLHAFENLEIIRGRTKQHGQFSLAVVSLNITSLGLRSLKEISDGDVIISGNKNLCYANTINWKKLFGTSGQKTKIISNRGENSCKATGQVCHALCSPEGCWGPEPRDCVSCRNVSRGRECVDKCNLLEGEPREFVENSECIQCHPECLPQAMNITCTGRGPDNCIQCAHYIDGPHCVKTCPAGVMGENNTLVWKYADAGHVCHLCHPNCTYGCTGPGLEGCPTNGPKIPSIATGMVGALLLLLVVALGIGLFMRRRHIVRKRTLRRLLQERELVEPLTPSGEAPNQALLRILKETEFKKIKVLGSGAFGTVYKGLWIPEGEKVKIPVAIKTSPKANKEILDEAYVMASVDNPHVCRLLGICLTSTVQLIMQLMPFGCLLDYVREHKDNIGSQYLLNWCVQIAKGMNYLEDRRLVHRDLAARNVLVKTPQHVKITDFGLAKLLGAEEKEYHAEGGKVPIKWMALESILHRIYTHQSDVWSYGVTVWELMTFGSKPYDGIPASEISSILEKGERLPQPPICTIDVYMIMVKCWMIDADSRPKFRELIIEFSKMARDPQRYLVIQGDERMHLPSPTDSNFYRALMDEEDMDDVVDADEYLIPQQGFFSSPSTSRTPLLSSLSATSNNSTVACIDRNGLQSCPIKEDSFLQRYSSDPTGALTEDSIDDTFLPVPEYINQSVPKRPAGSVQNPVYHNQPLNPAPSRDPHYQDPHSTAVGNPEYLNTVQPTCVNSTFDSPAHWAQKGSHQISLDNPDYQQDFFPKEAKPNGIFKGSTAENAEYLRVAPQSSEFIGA
Procedure, shortened: as §1

[3] = biological target: T3, various mutants of kinase EGFR (BaF3 cell lines stably transfected with kinase) (Homo sapiens, UniProt P00533)
T3 construct: other: BaF3 cells stably transfected with EGFR Δ19Del; MTS, 48 h; other: BaF3 cell line stably transfected with EGFR Δ19Del
T3 sequence (P00533 with tags, fused parts or gaps DEL746-750): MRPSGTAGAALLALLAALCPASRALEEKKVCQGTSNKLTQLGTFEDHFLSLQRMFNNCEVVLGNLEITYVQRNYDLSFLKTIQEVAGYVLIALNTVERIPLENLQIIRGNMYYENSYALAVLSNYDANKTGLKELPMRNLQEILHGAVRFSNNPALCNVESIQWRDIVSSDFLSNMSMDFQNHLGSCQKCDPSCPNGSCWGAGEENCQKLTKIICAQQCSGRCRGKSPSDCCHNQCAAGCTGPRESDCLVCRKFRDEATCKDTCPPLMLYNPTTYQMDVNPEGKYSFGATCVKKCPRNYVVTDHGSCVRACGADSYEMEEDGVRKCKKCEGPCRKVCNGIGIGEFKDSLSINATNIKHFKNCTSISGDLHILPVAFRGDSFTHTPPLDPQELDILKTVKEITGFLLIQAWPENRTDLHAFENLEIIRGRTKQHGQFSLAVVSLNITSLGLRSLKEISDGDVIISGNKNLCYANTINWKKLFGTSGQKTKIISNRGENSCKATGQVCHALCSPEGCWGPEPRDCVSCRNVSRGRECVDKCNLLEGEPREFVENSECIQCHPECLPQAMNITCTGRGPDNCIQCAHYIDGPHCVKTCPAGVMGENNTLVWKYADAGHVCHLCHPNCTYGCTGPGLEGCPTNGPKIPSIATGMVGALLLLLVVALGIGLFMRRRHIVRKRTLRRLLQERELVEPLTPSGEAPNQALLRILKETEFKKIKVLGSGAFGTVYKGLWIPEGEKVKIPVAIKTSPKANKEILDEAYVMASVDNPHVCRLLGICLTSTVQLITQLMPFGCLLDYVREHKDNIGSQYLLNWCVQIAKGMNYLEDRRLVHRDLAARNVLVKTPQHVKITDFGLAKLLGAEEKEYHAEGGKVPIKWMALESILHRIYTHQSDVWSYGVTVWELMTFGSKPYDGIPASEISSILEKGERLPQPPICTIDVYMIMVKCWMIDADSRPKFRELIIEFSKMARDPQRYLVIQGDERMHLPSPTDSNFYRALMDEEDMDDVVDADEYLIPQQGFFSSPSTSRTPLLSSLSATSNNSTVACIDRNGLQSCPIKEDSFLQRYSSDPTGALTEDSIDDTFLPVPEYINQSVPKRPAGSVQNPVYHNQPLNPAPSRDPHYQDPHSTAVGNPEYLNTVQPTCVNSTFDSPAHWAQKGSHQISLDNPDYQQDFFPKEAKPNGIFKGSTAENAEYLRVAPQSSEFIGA
Procedure, shortened: as §1

[4] = biological target: T4, various mutants of kinase EGFR (BaF3 cell lines stably transfected with kinase) (Homo sapiens, UniProt P00533, T790M/C797S, form not given)
T4 construct: other: BaF3 cells stably transfected with EGFR Δ19Del/T790M/C797S; MTS, 48; other: BaF3 cell line stably transfected with EGFR Δ19Del/T790M/C7
T4 sequence (P00533 with tags, fused parts or gaps DEL746-750/T790M/C797S, form open): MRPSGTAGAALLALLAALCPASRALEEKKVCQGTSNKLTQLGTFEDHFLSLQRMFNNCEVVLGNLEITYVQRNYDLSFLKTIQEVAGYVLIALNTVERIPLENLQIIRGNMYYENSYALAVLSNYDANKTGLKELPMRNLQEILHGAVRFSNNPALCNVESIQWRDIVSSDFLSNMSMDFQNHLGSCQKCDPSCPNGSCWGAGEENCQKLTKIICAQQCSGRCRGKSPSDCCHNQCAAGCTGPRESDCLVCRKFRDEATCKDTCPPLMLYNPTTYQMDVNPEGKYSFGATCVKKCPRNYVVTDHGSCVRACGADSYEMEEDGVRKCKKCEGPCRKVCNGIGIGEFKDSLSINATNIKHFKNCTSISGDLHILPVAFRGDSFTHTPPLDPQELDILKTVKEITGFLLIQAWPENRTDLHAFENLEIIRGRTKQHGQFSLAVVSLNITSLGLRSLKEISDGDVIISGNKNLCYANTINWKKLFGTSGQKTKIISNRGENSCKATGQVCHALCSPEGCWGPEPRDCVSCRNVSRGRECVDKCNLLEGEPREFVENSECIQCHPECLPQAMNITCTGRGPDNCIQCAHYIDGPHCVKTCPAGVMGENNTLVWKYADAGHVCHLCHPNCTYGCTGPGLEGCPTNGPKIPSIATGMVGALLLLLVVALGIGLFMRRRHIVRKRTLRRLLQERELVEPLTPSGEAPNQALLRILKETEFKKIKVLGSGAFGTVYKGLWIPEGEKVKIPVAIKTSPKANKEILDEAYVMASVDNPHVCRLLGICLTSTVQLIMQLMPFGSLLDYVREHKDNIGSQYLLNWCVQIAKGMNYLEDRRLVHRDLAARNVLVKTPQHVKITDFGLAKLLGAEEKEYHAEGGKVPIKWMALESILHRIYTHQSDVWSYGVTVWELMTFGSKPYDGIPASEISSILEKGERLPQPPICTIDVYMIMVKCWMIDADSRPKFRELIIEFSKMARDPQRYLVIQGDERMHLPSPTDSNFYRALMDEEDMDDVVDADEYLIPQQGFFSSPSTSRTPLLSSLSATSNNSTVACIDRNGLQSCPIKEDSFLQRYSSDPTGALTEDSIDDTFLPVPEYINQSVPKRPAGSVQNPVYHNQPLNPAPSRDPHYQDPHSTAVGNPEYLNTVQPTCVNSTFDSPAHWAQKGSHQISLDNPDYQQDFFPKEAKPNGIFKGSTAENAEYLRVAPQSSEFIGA
Procedure, shortened: as §1

[5] = biological target: T5, various mutants of kinase EGFR (BaF3 cell lines stably transfected with kinase) (Homo sapiens, UniProt P00533, L858R/T790M)
T5 construct: expressed in transfected cells; host or cells: BaF3
Procedure, shortened: as §1

[6] = biological target: T6, various mutants of kinase EGFR (BaF3 cell lines stably transfected with kinase) (Homo sapiens, UniProt P00533, C797S/L858R/T790M)
T6 construct: expressed in transfected cells; host or cells: BaF3
Procedure, shortened: as §1

[7] = BaF3 cells stably transfected with EGFR L858R, read-out: IC50, growth inhibition, L858R
[8] = BaF3 cells stably transfected with EGFR Δ19Del/T790M, read-out: IC50, growth inhibition, Δ19Del/T790M
[9] = BaF3 cells stably transfected with EGFR Δ19Del, read-out: IC50, growth inhibition, Δ19Del
[10] = BaF3 cells stably transfected with EGFR Δ19Del/T790M/C797S, read-out: IC50, growth inhibition, Δ19Del/T790M/C797S
[11] = BaF3 cells stably transfected with EGFR L858R/T790M, read-out: IC50, growth inhibition, L858R/T790M
[12] = BaF3 cells stably transfected with EGFR L858R/T790M/C797S, read-out: IC50, growth inhibition, L858R/T790M/C797S
[13] = BaF3 cell line stably transfected with EGFR L858R, read-out: L858R growth inhibitory activity IC50
[14] = BaF3 cell line stably transfected with EGFR Δ19Del/T790M, read-out: Δ19Del/ T790M growth inhibitory activity IC50
[15] = BaF3 cell line stably transfected with EGFR Δ19Del, read-out: Δ19Del growth inhibitory activity IC50
[16] = BaF3 cell line stably transfected with EGFR Δ19Del/T790M/C797S, read-out: Δ19Del/T790M/ C797S growth inhibitory activity IC50
[17] = BaF3 cell line stably transfected with EGFR L858R/T790M, read-out: L858R/ T790M growth inhibitory activity IC50
[18] = BaF3 cell line stably transfected with EGFR L858R/T790M/C797S, read-out: L858R/T790M/ C797S growth inhibitory activity IC50

Compound | pIC50 [1, 7] | pIC50 [2, 8] | pIC50 [3, 9] | pIC50 [4, 10] | pIC50 [5, 11] | pIC50 [6, 12] | pIC50 [1, 13] | pIC50 [2, 14] | pIC50 [3, 15] | pIC50 [4, 16] | pIC50 [5, 17] | pIC50 [6, 18]
CCc1cc(Nc2ncc(Br)c(Nc3ccc4nccnc4c3N(CC)S(C)(=O)=O)n2)c(OC)cc1N1CCC(N(C)C)CC1 [Compound I-97] | ≥ 7.30 | ≥ 7.30 | ≥ 7.30 | ≥ 7.30 | ≥ 7.30 | ≥ 7.30 | – | – | – | – | – | –
CCc1cc(Nc2nc(Nc3ccc4nccnc4c3N(C)S(C)(=O)=O)c3[nH]ccc3n2)c(OC)cc1N1CCC(N(C)C)CC1 [II-1-32] | – | – | – | – | – | – | 5.60 to 6.30 | 5.60 to 6.30 | 5.60 to 6.30 | 6.30 to 7.30 | 6.30 to 7.30 | 6.30 to 7.30
CCc1cc(Nc2ncc(C3CC3)c(Nc3ccc4nccnc4c3N(C)S(C)(=O)=O)n2)c(OC)cc1N1CCC(N(C)C)C1 (stereo not drawn) [Compound I-275] | ≥ 7.30 | ≥ 7.30 | ≥ 7.30 | ≥ 7.30 | 6.30 to 7.30 | ≥ 7.30 | – | – | – | – | – | –
COc1ccc(N2CCC(O)CC2)cc1Nc1ncc(C)c(Nc2ccc3nccnc3c2N(C)S(C)(=O)=O)n1 [Compound I-362] | – | – | – | – | – | – | ≥ 7.30 | 6.30 to 7.30 | 6.30 to 7.30 | ≥ 7.30 | 6.30 to 7.30 | ≥ 7.30
COc1cc(N2CCC(N3CCN(C)CC3)CC2)c(Cc2ccccc2)cc1Nc1ncc(C(F)(F)F)c(Nc2ccc3nccnc3c2N(C)S(C)(=O)=O)n1 [Compound I-204] | 5.60 to 6.30 | 5.60 to 6.30 | 5.60 to 6.30 | 5.60 to 6.30 | 5.60 to 6.30 | 5.60 to 6.30 | – | – | – | – | – | –
COc1cc(N2CCC(N(C)C)C2)c(C)cc1Nc1ncc(F)c(Nc2ccc3nccnc3c2N(C)S(C)(=O)=O)n1 (stereo not drawn) [Compound I-187] | 6.30 to 7.30 | 6.30 to 7.30 | ≥ 7.30 | 6.30 to 7.30 | 6.30 to 7.30 | 6.30 to 7.30 | – | – | – | – | – | –
CCc1cc(Nc2ncc(Br)c(Nc3ccc4nccnc4c3NS(C)(=O)=O)n2)c(OC)cc1N1CCC(N(C)C)C1 (stereo not drawn) [Compound I-412] | – | – | – | – | – | – | ≥ 7.30 | ≥ 7.30 | ≥ 7.30 | ≥ 7.30 | ≥ 7.30 | ≥ 7.30
CCn1cc(Nc2ncc(Br)c(Nc3ccc4nccnc4c3N(C)S(C)(=O)=O)n2)c(C)n1 [Compound I-387] | – | – | – | – | – | – | 5.60 to 6.30 | 5.60 to 6.30 | 5.60 to 6.30 | 6.30 to 7.30 | 6.30 to 7.30 | 6.30 to 7.30
CCN(c1c(Nc2nc(Nc3cc(C)c(N4CCC(N(C)C)CC4)cc3OC)ncc2Br)ccc2nccnc12)S(C)(=O)=O [Compound I-299] | 6.30 to 7.30 | ≥ 7.30 | ≥ 7.30 | ≥ 7.30 | ≥ 7.30 | ≥ 7.30 | – | – | – | – | – | –
CCc1cc(Nc2ncc(Br)c(Nc3ccc4nccnc4c3N(C)S(C)(=O)=O)n2)c(OC)cc1N1CCC2(CC1)CC(N(C)C)C2 [Compound I-399] | – | – | – | – | – | – | 6.30 to 7.30 | 6.30 to 7.30 | 6.30 to 7.30 | ≥ 7.30 | 6.30 to 7.30 | ≥ 7.30
COc1cc(N2CCC(N3CCN(C)CC3)CC2)c(CC2CC2)cc1Nc1ncc(Br)c(Nc2ccc3nccnc3c2NS(C)(=O)=O)n1 [Compound I-408] | – | – | – | – | – | – | ≥ 7.30 | ≥ 7.30 | 6.30 to 7.30 | ≥ 7.30 | ≥ 7.30 | ≥ 7.30
COc1cc(N2CCC(N(C)C)CC2)c(C)cc1Nc1ncc(Cl)c(Nc2ccc3nccnc3c2N(C)S(C)(=O)=O)n1 [Compound I-169] | ≥ 7.30 | ≥ 7.30 | ≥ 7.30 | ≥ 7.30 | ≥ 7.30 | ≥ 7.30 | – | – | – | – | – | –

Other lines, results leading:

pIC50 [1, 7] | pIC50 [2, 8] | pIC50 [3, 9] | pIC50 [4, 10] | pIC50 [5, 11] | pIC50 [6, 12] | pIC50 [1, 13] | pIC50 [2, 14] | pIC50 [3, 15] | pIC50 [4, 16] | pIC50 [5, 17] | pIC50 [6, 18] | Compound
6.30 to 7.30 | 6.30 to 7.30 | 6.30 to 7.30 | ≥ 7.30 | 6.30 to 7.30 | ≥ 7.30 | – | – | – | – | – | – | CCc1cc(Nc2ncc(Br)c(Nc3ccc4nccnc4c3N(CC)S(C)(=O)=O)n2)c(OC(F)(F)F)cc1N1CCC(N2CCN(C)CC2)CC1 [Compound I-96]
– | – | – | – | – | – | ≥ 7.30 | ≥ 7.30 | 6.30 to 7.30 | ≥ 7.30 | ≥ 7.30 | ≥ 7.30 | CCc1cnc(Nc2cc(F)c(N3CCC(N4CCN(C)CC4)CC3)c(F)c2)nc1Nc1ccc2nccnc2c1N(C)S(C)(=O)=O [Compound I-349]
6.30 to 7.30 | 6.30 to 7.30 | 6.30 to 7.30 | ≥ 7.30 | 6.30 to 7.30 | 6.30 to 7.30 | – | – | – | – | – | – | COc1nc(N2CCC(N3CCN(C)CC3)CC2)ccc1Nc1ncc(Cl)c(Nc2ccc3nccnc3c2N(C2CC2)S(C)(=O)=O)n1 [Compound I-239]
≥ 7.30 | ≥ 7.30 | 6.30 to 7.30 | ≥ 7.30 | ≥ 7.30 | ≥ 7.30 | – | – | – | – | – | – | COc1cc(N2CCC(N3CCN(C)CC3)CC2)c(CC2CC2)cc1Nc1ncc(Br)c(Nc2ccc3nccnc3c2N(C)S(C)(=O)=O)n1 [Compound I-10]
6.30 to 7.30 | ≥ 7.30 | 6.30 to 7.30 | ≥ 7.30 | ≥ 7.30 | ≥ 7.30 | – | – | – | – | – | – | COc1cc(N2CCC(N3CCN(C)CC3)CC2)c(C2CC2)cc1Nc1ncc(Br)c(Nc2ccc3nccnc3c2N(C)S(C)(=O)=O)n1 [Compound I-285]
6.30 to 7.30 | 6.30 to 7.30 | 6.30 to 7.30 | ≥ 7.30 | ≥ 7.30 | ≥ 7.30 | – | – | – | – | – | – | CCN(c1c(Nc2nc(Nc3cc(CC4CC4)c(N4CCC(N5CCN(C)CC5)CC4)cc3OC)ncc2Cl)ccc2nccnc12)S(C)(=O)=O [Compound I-229]
– | – | – | – | – | – | 6.30 to 7.30 | ≥ 7.30 | 6.30 to 7.30 | ≥ 7.30 | ≥ 7.30 | ≥ 7.30 | COc1cc(N2CCC(N3CCN(C)CC3)CC2)c(C)cc1Nc1nc(Nc2ccc3nccnc3c2N(C)S(C)(=O)=O)c2cc[nH]c2n1 [II-2-5]
– | – | – | – | – | – | ≥ 7.30 | ≥ 7.30 | ≥ 7.30 | ≥ 7.30 | ≥ 7.30 | ≥ 7.30 | CCc1cc(Nc2ncc(CC)c(Nc3ccc4nccnc4c3N(C)S(C)(=O)=O)n2)c(OC)cc1N1CCC(N2CCN(C)CC2)CC1 [Compound I-318]
6.30 to 7.30 | 6.30 to 7.30 | 6.30 to 7.30 | 6.30 to 7.30 | 6.30 to 7.30 | 6.30 to 7.30 | – | – | – | – | – | – | COc1cc(N2CCC(N3CCN(C)CC3)CC2)c(C)cc1Nc1ncc(C#N)c(Nc2ccc3nccnc3c2N(C)S(C)(=O)=O)n1 [Compound I-28]
6.30 to 7.30 | 5.60 to 6.30 | 5.60 to 6.30 | 5.60 to 6.30 | 5.60 to 6.30 | 5.60 to 6.30 | – | – | – | – | – | – | COc1cc(N2CCC(N3CCN(C)CC3)CC2)ccc1Nc1ncc(C#N)c(Nc2ccc3nccnc3c2N(C)S(C)(=O)=O)n1 [Compound I-27]
6.30 to 7.30 | ≥ 7.30 | 6.30 to 7.30 | ≥ 7.30 | 6.30 to 7.30 | 6.30 to 7.30 | – | – | – | – | – | – | CCc1cc(Nc2ncc(Cl)c(Nc3ccc4nccnc4c3N(C)S(=O)(=O)C(C)C)n2)c(OC)nc1N1CCC(N2CCN(C)CC2)CC1 [Compound I-253]
6.30 to 7.30 | 6.30 to 7.30 | 6.30 to 7.30 | 6.30 to 7.30 | 6.30 to 7.30 | 6.30 to 7.30 | – | – | – | – | – | – | COc1cc(N2CCC(N3CCN(C)CC3)CC2)ccc1Nc1ncc(Cl)c(Nc2ccc3nccnc3c2N(C)S(=O)(=O)C2CC2)n1 [Compound I-237]
≥ 7.30 | ≥ 7.30 | 6.30 to 7.30 | ≥ 7.30 | ≥ 7.30 | ≥ 7.30 | – | – | – | – | – | – | CCc1cc(Nc2ncc(Cl)c(Nc3ccc4nccnc4c3N(CC)S(C)(=O)=O)n2)c(OC)nc1N1CCC(N2CCN(C)CC2)CC1 [Compound I-227]
6.30 to 7.30 | ≥ 7.30 | 6.30 to 7.30 | ≥ 7.30 | ≥ 7.30 | ≥ 7.30 | – | – | – | – | – | – | COc1cc(N2CCC(N3CCN(C)CC3)CC2)ccc1Nc1ncc(Br)c(Nc2ccc3nccnc3c2N(C)S(=O)(=O)C2CC2)n1 [Compound I-215]
